According to patent US9296723B2, “NAMPT inhibitors” (AbbVie Inc., priority 2012, dated 2016):

Legend:
[1] = target: T1, NAMPT (Homo sapiens, UniProt P43490); assay: Time-Resolved Fluorescence Resonance Energy Transfer (TR-FRET) Binding Assay of NAMPT; settings: 6.8 nM NAMPT, 200 nM probe, equilibrated 3 hours, no substrates
How it was run: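 Compound was mixed with enzyme, probe and antibody and equilibrated 3 h at room temperature. TR-FRET read at Ex 337 nm, Em 520/495 nm. Ratios were normalized to controls and fitted to a four-parameter logistic equation for IC50.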

[2] = target: T1, NAMPT; assay: TR-FRET Binding Assay of NAMPT with PRPP; settings: 2 nM NAMPT, 2 nM probe, 200 µM PRPP and 2.5 mM ATP, equilibrated 16 hours
How it was run: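 TR-FRET probe displacement with 2 nM NAMPT, 2 nM probe and 1 nM Tb-anti-His antibody in the presence of 200 µM PRPP and 2.5 mM ATP, 2% DMSO (all final). Equilibrated 16 hours before reading to permit possible enzymatic modification of compounds.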

[3] = test system: PC3 cells; assay: NAMPT Cell Proliferation Assay (Cell Titer Glo); assay type: cell-based; settings: Homo sapiens, PC-3, 120 h, incubated 5 days, cell viability
How it was run: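 PC3 cells (500/well, RPMI with 10% heat-inactivated FBS) were exposed to 10-fold compound dilutions from […] for 5 days at 37 °C, 5% CO2. Viability was read with Cell Titer Glo; IC50 from sigmoidal fit of percent inhibition.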

T1 sequence (P43490 whole entry): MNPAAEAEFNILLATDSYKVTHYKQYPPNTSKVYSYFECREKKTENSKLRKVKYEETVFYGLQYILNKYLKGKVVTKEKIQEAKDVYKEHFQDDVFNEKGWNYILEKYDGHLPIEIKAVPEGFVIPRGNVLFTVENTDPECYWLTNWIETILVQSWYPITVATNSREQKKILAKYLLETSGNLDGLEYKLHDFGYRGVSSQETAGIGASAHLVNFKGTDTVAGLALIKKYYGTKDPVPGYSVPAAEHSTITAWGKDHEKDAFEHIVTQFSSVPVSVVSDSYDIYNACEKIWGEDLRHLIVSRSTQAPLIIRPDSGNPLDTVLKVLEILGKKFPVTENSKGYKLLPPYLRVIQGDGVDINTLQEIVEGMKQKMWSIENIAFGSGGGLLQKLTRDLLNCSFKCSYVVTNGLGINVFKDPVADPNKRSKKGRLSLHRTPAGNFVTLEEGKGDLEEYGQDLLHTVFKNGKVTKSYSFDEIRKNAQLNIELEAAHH

| IC50 [1] | IC50 [2] | IC50 [3] | SMILES |
| --- | --- | --- | --- |
| 59 nM | 0.243 nM | 21.9 nM | CC1CC1C(=O)N1CC[C@@H](Oc2ccc(NC(=O)N3CC(c4cccnc4)C3)cc2)C1 (stereo partly drawn) [Example 301, N-[4-({(3R)-1-[(2-methylcyclopropyl)carbonyl]pyrrolidin-3-yl}oxy)phenyl]-3-(pyridin-3-yl)azetidine-1-carboxamide] |
| 23 nM | 0.255 nM | 63.2 nM | CCC(=O)N1CCC(c2ccc(NC(=O)N3CC(c4cccnc4)C3)cc2)CC1 [Example 192, N-[4-(1-propanoylpiperidin-4-yl)phenyl]-3-(pyridin-3-yl)azetidine-1-carboxamide] |
| 170 nM | 0.988 nM | 113 nM | CSCCC(=O)N1CC=C(c2ccc(NC(=O)N3CC(c4cccnc4)C3)cc2)CC1 [Example 24, N-(4-{1-[3-(methylsulfanyl)propanoyl]-1,2,3,6-tetrahydropyridin-4-yl}phenyl)-3-(pyridin-3-yl)azetidine-1-carboxamide] |
| 52.1 nM | 0.171 nM | 71.1 nM | O=C(CC1CCOCC1)N1CCC(c2ccc(NC(=O)N3CC(c4cccnc4)C3)cc2)C1 (stereo not drawn) [Example 64, 3-(pyridin-3-yl)-N-{4-[1-(tetrahydro-2H-pyran-4-ylacetyl)pyrrolidin-3-yl]phenyl}azetidine-1-carboxamide] |
| 879 nM | 0.178 nM | 6680 nM | N#Cc1ccc(NC(=O)N2CC(c3cccnc3)C2)cc1 [Example 14, N-(4-cyanophenyl)-3-(pyridin-3-yl)azetidine-1-carboxamide] |
| 649 nM | 0.213 nM | 993 nM | CC(C)CN1CCC(c2ccc(NC(=O)N3CC(c4cccnc4)C3)cc2)CC1 [Example 235, N-{4-[1-(2-methylpropyl)piperidin-4-yl]phenyl}-3-(pyridin-3-yl)azetidine-1-carboxamide] |
| 17.2 nM | 0.303 nM | 1.78 nM | CC(C)(O)C(=O)N1CCC(c2ccc(NC(=O)N3CC(c4cccnc4)C3)cc2)CC1 [Example 51, N-{4-[1-(2-hydroxy-2-methylpropanoyl)piperidin-4-yl]phenyl}-3-(pyridin-3-yl)azetidine-1-carboxamide] |
| 269 nM | 0.58 nM | 109 nM | O=C(CC1CCOCC1)N1CC[C@H](Oc2ccc(NC(=O)N3CC(c4cccnc4)C3)cc2)C1 [Example 88, 3-(pyridin-3-yl)-N-(4-{[(3S)-1-(tetrahydro-2H-pyran-4-ylacetyl)pyrrolidin-3-yl]oxy}phenyl)azetidine-1-carboxamide] |
| 69.4 nM | 0.255 nM | 125 nM | CC(C)(O)C(=O)N1CC(Oc2ccc(NC(=O)N3CC(c4cccnc4)C3)cc2)C1 [Example 30, N-(4-{[1-(2-hydroxy-2-methylpropanoyl)azetidin-3-yl]oxy}phenyl)-3-(pyridin-3-yl)azetidine-1-carboxamide] |
| 169 nM | 0.44 nM | 200 nM | CCC(=O)N1CC(c2ccc(NC(=O)N3CC(c4cccnc4)C3)cc2)C1 [Example 226, N-[4-(1-propanoylazetidin-3-yl)phenyl]-3-(pyridin-3-yl)azetidine-1-carboxamide] |
| 30.3 nM | 0.268 nM | 64 nM | O=C(Nc1ccc(OC2CCN(C(=O)C3CC3)CC2)cc1)N1CC(c2cccnc2)C1 [Example 47, N-(4-{[1-(cyclopropylcarbonyl)piperidin-4-yl]oxy}phenyl)-3-(pyridin-3-yl)azetidine-1-carboxamide] |
| 15 nM | 0.281 nM | 64.6 nM | O=C(CC1CCCC1)N1CCC(c2ccc(NC(=O)N3CC(c4cccnc4)C3)cc2)CC1 [Example 196, N-{4-[1-(cyclopentylacetyl)piperidin-4-yl]phenyl}-3-(pyridin-3-yl)azetidine-1-carboxamide] |
| 77.2 nM | 0.218 nM | 64.2 nM | O=C(Nc1ccc(OC2CN(C(=O)[C@H]3CCCO3)C2)cc1)N1CC(c2cccnc2)C1 [Example 28, 3-(pyridin-3-yl)-N-[4-({1-[(2R)-tetrahydrofuran-2-ylcarbonyl]azetidin-3-yl}oxy)phenyl]azetidine-1-carboxamide] |
| 19.7 nM | 0.195 nM | 14 nM | CC[C@H](C)C(=O)N1CCC(Oc2ccc(NC(=O)N3CC(c4cccnc4)C3)cc2)CC1 [Example 4, N-[4-({1-[(2S)-2-methylbutanoyl]piperidin-4-yl}oxy)phenyl]-3-(pyridin-3-yl)azetidine-1-carboxamide] |
| 18.8 nM | 0.209 nM | 58.7 nM | O=C(Nc1ccc(OC2CCN(C(=O)c3cccs3)CC2)cc1)N1CC(c2cccnc2)C1 [Example 32, 3-(pyridin-3-yl)-N-(4-{[1-(thiophen-2-ylcarbonyl)piperidin-4-yl]oxy}phenyl)azetidine-1-carboxamide] |
| 65.6 nM | 0.211 nM | 77.7 nM | O=C(CC(F)(F)F)N1CCC(c2ccc(NC(=O)N3CC(c4cccnc4)C3)cc2)C1 (stereo not drawn) [Example 72, 3-(pyridin-3-yl)-N-{4-[1-(3,3,3-trifluoropropanoyl)pyrrolidin-3-yl]phenyl}azetidine-1-carboxamide] |
| 23.7 nM | 0.234 nM | 28 nM | CCCC(=O)N1CCC(Oc2ccc(NC(=O)N3CC(c4cccnc4)C3)cc2)CC1 [Example 43, N-{4-[(1-butanoylpiperidin-4-yl)oxy]phenyl}-3-(pyridin-3-yl)azetidine-1-carboxamide] |
| 50.7 nM | 0.272 nM | 66.5 nM | O=C(Nc1ccc(C2CCN(C(=O)C3CCCC3)C2)cc1)N1CC(c2cccnc2)C1 (stereo not drawn) [Example 295, N-{4-[1-(cyclopentylcarbonyl)pyrrolidin-3-yl]phenyl}-3-(pyridin-3-yl)azetidine-1-carboxamide] |
| 26.4 nM | 0.243 nM | 19.8 nM | CC(C)C(C)C(=O)N1CCC(c2ccc(NC(=O)N3CC(c4cccnc4)C3)cc2)C1 (stereo not drawn) [Example 296, N-{4-[1-(2,3-dimethylbutanoyl)pyrrolidin-3-yl]phenyl}-3-(pyridin-3-yl)azetidine-1-carboxamide] |
| 206 nM | 0.356 nM | 218 nM | COCCOCC(=O)N1CC(c2ccc(NC(=O)N3CC(c4cccnc4)C3)cc2)C1 [Example 210, N-(4-{1-[(2-methoxyethoxy)acetyl]azetidin-3-yl}phenyl)-3-(pyridin-3-yl)azetidine-1-carboxamide] |
| 26.6 nM | 0.219 nM | 14.3 nM | CC(C)(C)C(=O)N1CCC(c2ccc(NC(=O)N3CC(c4cccnc4)C3)cc2)C1 (stereo not drawn) [Example 282, N-{4-[1-(2,2-dimethylpropanoyl)pyrrolidin-3-yl]phenyl}-3-(pyridin-3-yl)azetidine-1-carboxamide] |
| 32.8 nM | 0.262 nM | 11.1 nM | CC1(C(=O)N2CC[C@@H](Oc3ccc(NC(=O)N4CC(c5cccnc5)C4)cc3)C2)CC1 [Example 309, N-[4-({(3R)-1-[(1-methylcyclopropyl)carbonyl]pyrrolidin-3-yl}oxy)phenyl]-3-(pyridin-3-yl)azetidine-1-carboxamide] |
| 15.8 nM | 0.304 nM | 74 nM | O=C(Nc1ccc(C2CCN(C(=O)C3CCCCC3)CC2)cc1)N1CC(c2cccnc2)C1 [Example 177, N-{4-[1-(cyclohexylcarbonyl)piperidin-4-yl]phenyl}-3-(pyridin-3-yl)azetidine-1-carboxamide] |
| 143 nM | 0.63 nM | 276 nM | CCOCC(=O)N1CC=C(c2ccc(NC(=O)N3CC(c4cccnc4)C3)cc2)CC1 [Example 22, N-{4-[1-(ethoxyacetyl)-1,2,3,6-tetrahydropyridin-4-yl]phenyl}-3-(pyridin-3-yl)azetidine-1-carboxamide] |
| 32.1 nM | 0.43 nM | 10.1 nM | CC(C)(O)C(=O)N1CC=C(c2ccc(NC(=O)N3CC(c4cccnc4)C3)cc2)CC1 [Example 12, N-{4-[1-(2-hydroxy-2-methylpropanoyl)-1,2,3,6-tetrahydropyridin-4-yl]phenyl}-3-(pyridin-3-yl)azetidine-1-carboxamide] |
| 12.3 nM | 0.342 nM | 5.99 nM | O=C(Nc1ccc(C2CN(C(=O)c3ccccc3)C2)cc1)N1CC(c2cccnc2)C1 [Example 107, N-[4-(1-benzoylazetidin-3-yl)phenyl]-3-(pyridin-3-yl)azetidine-1-carboxamide] |
| 30.1 nM | 0.189 nM | 37.4 nM | O=C(CCN1CCCCC1)N1CCC(c2ccc(NC(=O)N3CC(c4cccnc4)C3)cc2)C1 (stereo not drawn) [Example 287, N-(4-{1-[3-(piperidin-1-yl)propanoyl]pyrrolidin-3-yl}phenyl)-3-(pyridin-3-yl)azetidine-1-carboxamide] |
| 143 nM | 0.239 nM | 365 nM | O=C(CN1CCOCC1)N1CCC(c2ccc(NC(=O)N3CC(c4cccnc4)C3)cc2)C1 (stereo not drawn) [Example 263, N-{4-[1-(morpholin-4-ylacetyl)pyrrolidin-3-yl]phenyl}-3-(pyridin-3-yl)azetidine-1-carboxamide] |
| 52.6 nM | 0.341 nM | 17.1 nM | O=C(CC1CCCC1)N1CC[C@@H](Oc2ccc(NC(=O)N3CC(c4cccnc4)C3)cc2)C1 [Example 300, N-(4-{[(3R)-1-(cyclopentylacetyl)pyrrolidin-3-yl]oxy}phenyl)-3-(pyridin-3-yl)azetidine-1-carboxamide] |
